For one experiment, the target named is T1, purified human MAO-A (Homo sapiens, UniProt P21397).
T1 construct: made in house; host or cells: Saccharomyces cerevisiae
T1 sequence (P21397 1-527): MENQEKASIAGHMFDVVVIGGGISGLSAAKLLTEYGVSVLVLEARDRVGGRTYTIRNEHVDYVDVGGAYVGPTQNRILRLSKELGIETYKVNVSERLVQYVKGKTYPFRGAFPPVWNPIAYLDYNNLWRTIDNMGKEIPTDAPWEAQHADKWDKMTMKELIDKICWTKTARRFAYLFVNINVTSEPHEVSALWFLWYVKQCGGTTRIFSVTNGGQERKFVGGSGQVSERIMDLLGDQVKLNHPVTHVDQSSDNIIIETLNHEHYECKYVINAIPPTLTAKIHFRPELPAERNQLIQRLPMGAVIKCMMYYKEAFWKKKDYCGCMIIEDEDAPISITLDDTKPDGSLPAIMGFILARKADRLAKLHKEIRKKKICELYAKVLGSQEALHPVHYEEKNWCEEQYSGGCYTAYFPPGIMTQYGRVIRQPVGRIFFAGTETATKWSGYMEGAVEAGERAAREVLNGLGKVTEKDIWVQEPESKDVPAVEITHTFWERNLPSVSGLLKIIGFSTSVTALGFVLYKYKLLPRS
Briefly: Anaerobic spectral kinetics of flavin reduction and adduct formation (stopped-flow / timed spectra). The class given is biochemical. As to conditions: for rate of anaerobic reduction of FAD (absorbance decrease at 495 nm) / rate of adduct formation (absorbance increase at 410 nm): purified MAO-A. As to the method:
Purified human MAO-A was dialyzed against 50 mM HEPES pH 7.5 for 1 h and concentrated to at least 40 μM before loading into the rapid-mixing device syringes. MAO-A (40 μM) was mixed with an equal volume of 50 mM HEPES pH 7.5 containing excess inactivating compound in the stopped-flow spectrophotometer (Applied Photophysics SX20) at 30 °C. For anaerobic experiments, the system was flushed with 10 mM dithionite before rinsing well with buffer containing 30 mM glucose, 1 U/mL glucose oxidase, and 24 U/mL catalase. Both the MAO-A and the compound to be added were flushed with argon before the addition of 30 mM glucose, 1 U/mL glucose oxidase, and 24 U/mL catalase to ensure anaerobiosis during the experiment. Absorbance changes were measured in triplicate at three wavelengths (410, 456, and 495 nm). The absorbance acquisition rate was set at 1000 Hz for the interval 0–0.5 s and 4 Hz for the interval 0.5–1000 s. The absorbance changes were analyzed using single or double exponential fits in the built-in software as appropriate.
Figure 7 Time courses for absorbance changes in MAO-A incubated anaerobically with propargylamine inactivators.

Experiment [1] deals with T2, human MAO-B (Homo sapiens, UniProt P27338).
T2 construct: purchased Sigma-Aldrich (Dorset, UK); host or cells: insect cells (membranes)
T2 sequence (P27338 1-520): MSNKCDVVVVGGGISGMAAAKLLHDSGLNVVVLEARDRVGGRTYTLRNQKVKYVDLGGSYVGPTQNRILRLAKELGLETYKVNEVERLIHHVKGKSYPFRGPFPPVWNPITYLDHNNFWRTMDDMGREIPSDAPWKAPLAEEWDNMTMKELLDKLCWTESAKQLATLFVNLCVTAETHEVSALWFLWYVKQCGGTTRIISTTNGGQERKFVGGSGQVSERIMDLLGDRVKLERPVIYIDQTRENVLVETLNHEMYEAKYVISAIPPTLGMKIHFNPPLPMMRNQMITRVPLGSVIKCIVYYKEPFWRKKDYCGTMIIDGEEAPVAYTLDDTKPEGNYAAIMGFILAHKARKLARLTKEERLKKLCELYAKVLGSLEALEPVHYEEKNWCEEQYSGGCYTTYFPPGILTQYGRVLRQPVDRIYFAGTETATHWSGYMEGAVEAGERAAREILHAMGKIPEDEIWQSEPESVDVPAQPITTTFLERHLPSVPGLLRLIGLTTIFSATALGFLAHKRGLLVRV
As to conditions: cited from earlier work.

In experiment [2] the target is T3, MAO-A (Homo sapiens, UniProt P21397).
T3 sequence (P21397 1-527): T1 sequence (P21397 1-527)
As to the kind of experiment: Partition ratio by long-term incubation. The experiment is classed as biochemical. More on the design: made in house; host or cells: Saccharomyces cerevisiae. As to conditions: incubation at 30 °C up to 10 days.

Experiment [3] deals with T3, MAO-A. As to the kind of experiment: Activity remaining or recovered after anaerobic incubation with inactivator. The class given is biochemical. On the set-up: made in house; host or cells: Saccharomyces cerevisiae. An excerpt:
MAO-A was made anaerobic by cycling with vacuum and argon. […] After the admission of oxygen to the cuvette, the 420 nm absorbance increased rapidly, accompanied by loss of activity.
In order to find a cause for the 600 nm absorbance, we considered whether oxidation could occur at either carbon adjacent to the amine nitrogen in MAO-A. (MAO-B is inactivated by F2MPA [19], so presumably, the normal allenyl imine product is formed by oxidation at the carbon between the amine and the propargyl group, CαP.) The alternative furfuryl imine product that would result from oxidation at the carbon on the other side of the amine nitrogen (between the amine and the furan ring, CαF) is shown in Scheme 2. Chemical analysis was attempted to detect the putative products of oxidation and molecular modeling to explore the interactions of F2MPA with MAO-A and MAO-B.

In experiment [4] the target is T3, MAO-A. More on the design: purchased Sigma-Aldrich (Dorset, UK); host or cells: insect cells (membranes); method as in PMID 27977122. The settings on record: cited from earlier work.
The subject of the next experiment is MAO. The settings on record: cited from earlier work.
On the set-up of experiment [5]: method as in PMID 16848670. As to conditions: depression; cited from earlier work.
Experiment [6] has as its target T2, human MAO-B. As to conditions: ratio of IC50 without/with 30 min preincubation; ref Malcomson et al. [40]; cited from earlier work.
The target of experiment [7] is T3, MAO-A. On the set-up: purchased Sigma-Aldrich (Dorset, UK); host or cells: insect cells (membranes). The settings on record: ratio of IC50 without/with 30 min preincubation; ref Malcomson et al. [40]; cited from earlier work.
Experiment [8] addresses T2, human MAO-B. The class given is biochemical. As to the method:
(§1) The IC50 determined after a fixed incubation time has become a routine way to compare inhibition by new inactivators, although both binding and the rate of inactivator oxidation influence the measurement.
(§2) The direct spectrophotometric assay using purified MAO-A (30–50 nM) was added last to a 1 mL final volume of 50 mM potassium phosphate pH 7.5 containing inhibitor (0–100 μM) and 0.3 mM kynuramine (equivalent to 2× KM). The increase in absorbance was followed at 314 nm in a Shimadzu UV-2101 spectrophotometer. The coupled assay in black 96-well plates (Eppendorf UK Ltd., Stevenage, UK) used tyramine, Ampliflu™ Red (AR), horseradish peroxidase (HRP) and membrane-bound human MAO-A and MAO-B purchased from Sigma-Aldrich (Dorset, UK). Final concentrations were 50 μM AR, 1 U/mL HRP, and 1 nM enzyme. The substrate was tyramine either at 2× KM (0.8 mM for MAO-A or 0.32 mM for MAO-B) for reversible binding or at 1 mM to assess remaining active MAO after incubation with the inactivators.

The target of experiment [9] is T3, MAO-A. As to the kind of experiment: IC50 after 30 min preincubation, coupled assay with saturating substrate. As to conditions: ratio of IC50 without/with 30 min preincubation. On the set-up: purchased Sigma-Aldrich (Dorset, UK); host or cells: insect cells (membranes). The class given is biochemical. As to the method:
as §1, §2

The target in experiment [10] is T3, MAO-A. As to conditions: read-out: MAO-A IC50 AR Assay; without preincubation, tyramine 2× KM (0.8 mM); mean ± SD of 2–4 experiments. As to the method:
(§3) The binding of these mechanism-based inhibitors can be assessed by measuring the inhibition without preincubation, adding the enzyme last to the assay mixture with both substrate and inhibitor. […] The IC50 is not an absolute parameter, but rather is a comparative measure that depends on the type of inhibition and the substrate concentration.
as §2
(§4) Ki values were calculated using the global Michaelis–Menten analysis in PRISM from initial rate data for 6 substrate concentrations (tyramine) at 5 inhibitor concentrations.

Experiment [11] addresses T2, human MAO-B. The class given is biochemical. The settings on record: without preincubation, tyramine 2× KM (0.32 mM); mean ± SD of 2–4 experiments; read-out: MAO-B IC50 AR Assay. How it is done: as §3, §2, §4
Experiment [12] has as its target T2, human MAO-B. As to the kind of experiment: Time-dependent inactivation, Kitz-Wilson analysis. The experiment is classed as biochemical. As to conditions: inactivation constant. As to the method:
(§5) Rates (as relative fluorescence units per second, rfu/s) were analyzed as the log of the fractional activity remaining compared to control against time to obtain kobs.

In experiment [13] the target is T3, MAO-A. As to conditions: read-out: MAO-A Ki Direct; ref Esteban et al. [18]; cited from earlier work.
In experiment [14] the target is T3, MAO-A. As to the kind of experiment: Time-dependent inactivation, Kitz-Wilson analysis. The class given is biochemical. On the set-up: purchased Sigma-Aldrich (Dorset, UK); host or cells: insect cells (membranes). How it is done: as §5
Where [15] appears, read: Figure S4, anaerobic stopped-flow, 30 C.

Like-named read-outs stand apart in the source and are kept apart here. Marks after values point to notes of the source that are not given here.

Regarding `C#CCN(C)Cc1ccco1` [F2MPA, N-(furan-2-ylmethyl)-N-methylprop-2-yn-1-amine], on purified human MAO-A (F2MPA 2 mM, MAO-A […] μM, anaerobic), the “time for completion of biphasic decrease in absorbance at 495 nm” value is on record as “more than 21 h”. Moreover, the “rate of anaerobic reduction of FAD (absorbance decrease at 495 nm)” value on purified human MAO-A (anaerobic) was 0.0034 ± 0.0009 min⁻¹. In addition, at human MAO-B [1], the MAO-B kinact was 0.61 min⁻¹ and the “MAO-B kinact/KI” value is on record as 0.0045 min^−1μM^−1. The Ki at human MAO-B [1] (inactivation constant) was 135000 nM. Moreover, the partition ratio on MAO-A [2] is over 1000. The activity retained on MAO-A [3] (MAO-A incubated anaerobically […] with 0.5 mM) is recorded as 7%. Moreover, the “activity restored by overnight aerobic dialysis” value on MAO-A [3] (after […] anaerobic incubation with 0.5 mM) is reported as 88%. At MAO-A [4], the MAO-A kinact is 0.087 min⁻¹ and the “MAO-A kinact/KI” value is given as 0.0005 min^−1μM^−1. In addition, at MAO-A [4] (inactivation constant), the Ki was 187000 nM.

Regarding `N[C@H]1C[C@@H]1c1ccccc1` [1S,2R-trans-2-phenylcyclopropylamine], the “times more potent in vitro than the other enantiomer” value with MAO is reported as 60 times.

As to `NNCCc1ccccc1` [Phenelzine], in [5], the patient response rates result is listed as “over 50%”.

`N[C@H]1C[C@@H]1c1ccccc1` (racemic) [Tranylcypromine]: the “MAO-B Enhancement” value at human MAO-B [6] is reported as 54.7 ^a. Also, the patient response rates result in experiment [5] is listed as “over 50%”. Also, the “MAO-A Enhancement” value at MAO-A [7] is on record as 100 ^a.

`C#CCN(C)Cc1ccccc1` [Pargyline]: at human MAO-B [8] (ratio of IC50 without/with 30 min preincubation), the “MAO-B Enhancement” value is given as 292. In addition, on purified human MAO-A (setting [15]), the “k, 410 nm (adduct)” value is 0.0043 s⁻¹ and the “k, 485 nm (reduction)” value turned out to be 0.0047 s⁻¹. In addition, on purified human MAO-A (anaerobic), the “rate of adduct formation (absorbance increase at 410 nm)” value amounted to 0.26 ± 0.03 min⁻¹ and the “rate of anaerobic reduction of FAD (absorbance decrease at 495 nm)” value is 0.28 ± 0.02 min⁻¹. In addition, the “MAO-A Enhancement” value at MAO-A [9] was 48.

Regarding `C#CCN(C)Cc1cc2cc(OCCCC3CCN(Cc4ccccc4)CC3)ccc2n1C` [ASS234, N-[[5-[3-(1-benzylpiperidin-4-yl)propoxy]-1-methylindol-2-yl]methyl]-N-methylprop-2-yn-1-amine], the IC50 (commonly the midpoint of a concentration-inhibition curve) at MAO-A [10] came out at 33 ± 3 nM; at human MAO-B [11] it was 3200 ± 410 nM; at human MAO-B [8] (read-out: MAO-B IC50 after 30 min preincubation, human MAO in insect cell membranes, saturating substrate), 120 ± 20 nM. Moreover, the Ki is 1740 nM on human MAO-B [12], 53 ± 14 nM on MAO-A [13] and 45 nM on MAO-A [14]. For the same compound, on purified human MAO-A (anaerobic), the “rate of anaerobic reduction of FAD (absorbance decrease at 495 nm)” value amounted to 3.36 min⁻¹. In addition, at MAO-A [9], the “MAO-A Enhancement” value stood at 122.

In the case of `C#CCN(C)[C@H](C)Cc1ccccc1` [Selegiline, (2R)-N-methyl-1-phenyl-N-prop-2-ynylpropan-2-amine], at purified human MAO-A (anaerobic), the “rate of adduct formation (absorbance increase at 410 nm)” value worked out at 0.016 ± 0.003 min⁻¹ and the “rate of anaerobic reduction of FAD (absorbance decrease at 495 nm)” value is 0.019 ± 0.002 min⁻¹. The “MAO-A Enhancement” value on MAO-A [9] was determined as 357.

These data come from PMC7763263, “Parameters for Irreversible Inactivation of Monoamine Oxidase” (Molecules, 2020).
